In ChEMBL document CHEMBL1201862, “PubChem BioAssay data set” (2004):
Calls of active or inactive are those of the source. Rule as the data show it, for most assays here: actives have a measured EC50 and inactives only a lower limit.

Experiments:
cells [1] = type: functional, cell-based
cells [2] = type: functional, cell-based; remark: listed apart in the source
[3] = target: T1, Short transient receptor potential channel 4 (Mus musculus, UniProt Q9QUQ5); assay: mouse TRPC4 channel inhibitors, dose response, cell-based, HEK293 TRPC4/mu-opioid, Fluo-4 calcium (AID 434942); type: functional;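 also: potency of inhibitors blocking the TRPC4 calcium response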
T1 sequence (Q9QUQ5 whole entry): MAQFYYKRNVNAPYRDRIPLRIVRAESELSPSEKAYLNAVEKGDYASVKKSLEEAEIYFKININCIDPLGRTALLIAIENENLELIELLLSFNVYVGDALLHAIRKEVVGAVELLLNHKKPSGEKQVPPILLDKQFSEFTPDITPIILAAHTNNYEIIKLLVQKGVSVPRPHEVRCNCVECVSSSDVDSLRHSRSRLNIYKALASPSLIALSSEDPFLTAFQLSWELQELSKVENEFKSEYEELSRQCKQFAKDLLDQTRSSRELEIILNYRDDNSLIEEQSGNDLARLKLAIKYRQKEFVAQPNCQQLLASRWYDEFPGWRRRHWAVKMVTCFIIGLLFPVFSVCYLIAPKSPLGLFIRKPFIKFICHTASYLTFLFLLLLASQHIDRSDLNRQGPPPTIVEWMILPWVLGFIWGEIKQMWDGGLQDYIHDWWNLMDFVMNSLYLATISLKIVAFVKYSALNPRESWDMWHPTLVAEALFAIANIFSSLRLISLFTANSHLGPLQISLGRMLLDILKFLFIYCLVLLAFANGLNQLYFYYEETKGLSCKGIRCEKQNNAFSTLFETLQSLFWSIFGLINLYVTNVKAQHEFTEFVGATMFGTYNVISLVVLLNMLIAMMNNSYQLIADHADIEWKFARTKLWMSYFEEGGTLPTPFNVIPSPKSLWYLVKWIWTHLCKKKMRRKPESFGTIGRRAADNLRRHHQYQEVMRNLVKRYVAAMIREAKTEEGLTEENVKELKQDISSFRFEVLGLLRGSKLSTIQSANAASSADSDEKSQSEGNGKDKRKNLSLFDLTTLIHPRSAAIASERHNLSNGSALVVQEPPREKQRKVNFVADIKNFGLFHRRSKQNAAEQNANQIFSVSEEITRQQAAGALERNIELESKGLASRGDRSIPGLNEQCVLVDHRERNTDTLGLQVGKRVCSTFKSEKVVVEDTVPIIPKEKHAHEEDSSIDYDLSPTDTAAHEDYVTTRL

[4] = target: T2, Heat shock factor protein 1 (Mus musculus, UniProt P38532); assay: inhibition of MG132-induced HSE-luciferase signal, confirmation, cell-based, NIH3T3, luminescence, dose retest (AID 2382); type: functional;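 also: NIH3T3 fibroblasts with HSF1-driven luciferase reporter stressed by proteasome inhibitor MG132; luminescence from HSF1-driven luciferase expression after 8 hours of MG132 stress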
T2 sequence (P38532 whole entry): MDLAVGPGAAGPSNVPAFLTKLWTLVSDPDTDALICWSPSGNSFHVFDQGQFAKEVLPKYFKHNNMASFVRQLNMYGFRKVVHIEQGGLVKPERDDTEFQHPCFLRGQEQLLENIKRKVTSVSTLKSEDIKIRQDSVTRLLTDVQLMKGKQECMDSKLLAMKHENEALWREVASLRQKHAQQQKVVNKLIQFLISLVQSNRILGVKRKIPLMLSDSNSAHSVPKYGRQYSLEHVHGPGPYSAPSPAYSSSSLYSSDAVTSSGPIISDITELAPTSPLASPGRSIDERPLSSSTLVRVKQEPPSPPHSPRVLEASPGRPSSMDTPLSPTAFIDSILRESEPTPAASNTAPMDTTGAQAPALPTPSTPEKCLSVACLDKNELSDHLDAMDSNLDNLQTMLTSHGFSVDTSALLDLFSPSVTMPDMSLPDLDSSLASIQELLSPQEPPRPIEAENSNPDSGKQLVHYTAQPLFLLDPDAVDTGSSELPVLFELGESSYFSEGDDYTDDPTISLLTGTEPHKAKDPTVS

[5] = microbe, parasite or virus in culture; type: functional; settings: Mycobacterium tuberculosis
cells [6] = type: functional
[7] = system: Streptococcus sp. 'group A'; assay: growth inhibition of control SK(-) GAS strain, dose response, counter-screen for streptokinase expression inhibitor project, luminescence, kanamycin, BacTiterGlo, confirmation (AID 1900); type: functional, organism-based
Streptococcus = assay: Group A Streptococcus viability loss, dose response, counter-screen for streptokinase expression inhibitor project, luminescence, BacTiterGlo (AID 1915); type: functional, organism-based;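 also: potency for reduction of bacterial viability or growth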
[8] = Luminescence Cell-Based Dose Retest to Confirm Inhibitors of Cancer Stem Cells. [Related pubchem assays (depositor defined):AID2717, AID2721]; type: functional; settings: Homo sapiens
[9] = inhibitors of firefly luciferase expression or activity, dose response, H4 neuroglioma cells, luminescence (AID 1990); type: functional, cell-based
[10] = Luminescence Cell-Based Dose Response HTS to Identify Inhibitors of 5'UTR Stem-Loop Driven Prion Protein mRNA Translation in H4 Neuroglioblastoma Cells. [Related pubchem assays: 1827 (Project Summary), 1813 (Primary HTS)]; type: functional
[11] = inhibitors of SNCA 5'UTR-driven reporter translation, confirmation, H4 neuroglioma cells, luminescence (AID 1988); type: functional, cell-based
[12] = target: T3, Corticotropin-releasing factor receptor 2/Corticotropin-releasing factor-binding protein (Homo sapiens, UniProt P24387+Q13324); assay: Dose Response confirmation of uHTS hits for small molecule antagonists of the CRF-binding protein and CRF-R2 receptor complex.; type: functional; settings: read-out: IC50_Mean
T3 sequence (Q13324 whole entry): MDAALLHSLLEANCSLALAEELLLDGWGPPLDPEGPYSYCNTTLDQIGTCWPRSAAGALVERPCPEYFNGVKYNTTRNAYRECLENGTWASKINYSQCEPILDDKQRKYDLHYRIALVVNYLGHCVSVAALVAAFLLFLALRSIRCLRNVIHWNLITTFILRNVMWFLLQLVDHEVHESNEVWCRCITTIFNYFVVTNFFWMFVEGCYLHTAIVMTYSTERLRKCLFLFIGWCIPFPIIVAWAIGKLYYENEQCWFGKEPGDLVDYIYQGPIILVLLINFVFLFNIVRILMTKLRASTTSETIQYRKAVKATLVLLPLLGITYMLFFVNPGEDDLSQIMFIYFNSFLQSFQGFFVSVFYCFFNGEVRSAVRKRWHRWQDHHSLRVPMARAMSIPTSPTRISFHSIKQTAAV
T3 sequence (P24387 whole entry): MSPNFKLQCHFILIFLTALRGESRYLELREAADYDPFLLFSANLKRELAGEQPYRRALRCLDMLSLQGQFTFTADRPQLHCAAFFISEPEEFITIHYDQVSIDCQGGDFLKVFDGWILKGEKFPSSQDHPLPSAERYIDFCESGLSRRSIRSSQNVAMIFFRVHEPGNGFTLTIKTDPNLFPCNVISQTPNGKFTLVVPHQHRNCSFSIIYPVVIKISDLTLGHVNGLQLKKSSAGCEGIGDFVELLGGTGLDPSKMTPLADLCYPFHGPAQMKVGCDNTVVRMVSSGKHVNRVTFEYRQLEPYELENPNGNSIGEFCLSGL

[13] = target: T3, Corticotropin-releasing factor receptor 2/Corticotropin-releasing factor-binding protein; assay: activators of CRF receptor 2 with binding protein – uHTS hits, confirmation (AID 602473); type: functional; settings: read-out: EC50_Mean
[14] = NIH-3T3 fibroblast cytotoxicity, dose response, cytotoxicity control, cell-based, fluorescence, Alamar Blue, secondary assay (AID 2327); type: functional;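 also: NIH-3T3 mouse fibroblasts cultured with fluconazole at 8 µg/mL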
[15] = C. albicans growth with fluconazole, confirmation, fluorescence, retest (AID 2467); type: functional, cell-based
[16] = inhibitors of intracellular T. cruzi replication, confirmation, NIH3T3 host cells, beta-gal luminescence (AID 2044); type: functional, cell-based;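 also: intracellular parasites grown in NIH/3T3 mouse fibroblasts as host cells; luminescent beta-galactosidase reporter signal from transgenic T. cruzi replicating inside host cells; inhibitors lower the luminescence signal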
[17] = cytotoxicity toward NIH3T3 fibroblasts, dose response, counter-screen, cell-based, ATP luminescence, mouse fibroblasts (AID 2010); type: functional;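 also: cells exposed to compound for about 90 hours before reading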
Streptokinase A = target: T4, Streptokinase A (Streptococcus pyogenes serotype M1, UniProt P10520); assay: S. pyogenes streptokinase expression inhibitors, potency, dose response, plasminogen activation absorbance, OD405 (AID 1914); type: functional, Streptococcus pyogenes M1 GAS;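 also: secreted streptokinase activity via plasminogen activation per viability signal from cell pellet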
T4 sequence (P10520 whole entry): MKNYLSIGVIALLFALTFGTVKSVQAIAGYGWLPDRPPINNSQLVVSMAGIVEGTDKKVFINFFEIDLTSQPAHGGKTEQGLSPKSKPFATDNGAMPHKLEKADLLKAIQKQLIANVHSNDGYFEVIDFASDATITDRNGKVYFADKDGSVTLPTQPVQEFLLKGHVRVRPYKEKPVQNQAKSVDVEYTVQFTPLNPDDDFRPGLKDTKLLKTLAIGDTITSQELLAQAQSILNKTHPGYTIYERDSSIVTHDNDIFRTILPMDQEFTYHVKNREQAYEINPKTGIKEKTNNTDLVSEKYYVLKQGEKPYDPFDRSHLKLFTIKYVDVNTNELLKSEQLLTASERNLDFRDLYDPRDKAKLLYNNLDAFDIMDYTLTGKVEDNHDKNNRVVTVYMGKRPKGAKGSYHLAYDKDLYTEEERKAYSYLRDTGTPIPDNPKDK

[18] = growth suppression of PTEN-null colon cells, dose response, cell-based, HCT116 PTEN knockout (AID 1047); type: functional;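 also: HCT116 colon tumor cells with PTEN knocked out; cells exposed to compound for 60 hours before readout; potency for loss of cell viability measured by luminescence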
[19] = growth suppression of beta-catenin-knockout colon cells, dose response, cell-based, HCT116, human colon tumor (AID 1045); type: functional;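 also: HCT116 colon tumor cells with beta catenin knocked out; cells exposed to compound for 60 hours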
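For AC50 in this document: cells exposed to compound for roughly 70 hours or longer before luminescence read.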

Structure (SMILES): O=C(NC1CCCC1)c1cc(-c2cccs2)on1
- EC50 (cells [1]): 108 µM (active)
- EC50 (cells [2]): 52.2 µM (active)

Structure (SMILES): Cc1ncsc1CCOC(=O)C12CC3CC(CC(C3)C1)C2
- EC50 [3]: 5.31 µM (active)

Structure (SMILES): CCOC(=O)C1(CCOc2ccccc2)CCN(Cc2cccc(-n3cccn3)c2)CC1
- EC50 [4]: > 195 µM (not active)
- CC50 [5]: > 40 µM (active)

Structure (SMILES): O=C(OCCCCN1C(=O)c2ccccc2C1=O)c1ccc(Br)o1
- IC50 (cells [6]): 46.8 µM (active)

Structure (SMILES): COc1ccc(NS(=O)(=O)c2ccc3[nH]c(COc4cccc5ccccc45)nc3c2)cc1
- EC50 [7]: 6.33 µM (active)
- CC50 [5]: 32.6 µM (active)
- EC50 (Streptococcus): 91 µM (active)
- AC50 [8]: 3.87 µM (active)

Structure (SMILES): CCN(CC)CCOC(=O)C(Cc1ccco1)Cc1cccc2ccccc12 (configuration not stated)
- EC50 [9]: > 120 µM (not active)
- EC50 (cells [1]): > 350 µM (not active)
- EC50 [10]: > 120 µM (not active)
- EC50 [11]: > 120 µM (not active)
- EC50 (cells [2]): > 350 µM (not active)
- IC50 [12]: > 47.1 µM (inactive)
- EC50 [13]: > 53 µM (inactive)

Structure (SMILES): C#CCSc1nnc(-c2ccc([N+](=O)[O-])cc2)o1
- IC50 (cells [6]): 9.4 µM (active)

Structure (SMILES): O=C(Nc1nc2ccccc2n1CCN1CCCC1)c1ccc(Cl)cc1
- IC50 (cells [6]): 25.4 µM (active)

Structure (SMILES): O=[N+]([O-])c1cccc(/C=C/c2ccc3cccc(O)c3n2)c1
- EC50 [7]: 3.36 µM (active)
- EC50 (cells [1]): > 350 µM (not active)
- EC50 (cells [2]): 7.51 µM (active)
- EC50 (Streptococcus): 7.37 µM (active)

Structure (SMILES): O=C(OCCCOC(=O)c1ccc([N+](=O)[O-])o1)c1ccc([N+](=O)[O-])o1
- IC50 (cells [6]): < 0.1 µM (active)

Structure (SMILES): Cn1nnnc1SCCNCc1ccccc1OCc1ccc(Cl)cc1
- EC50 [3]: 1.33 µM (active)

Structure (SMILES): CC(C)Cc1nnc(NC(=O)CCC(=O)N2CCC3(CC2)OCCO3)s1
- EC50 (cells [1]): > 350 µM (not active)
- EC50 (cells [2]): > 350 µM (not active)

Structure (SMILES): Cc1cc(OCc2cc(C(=O)NCC3(C)COC3)no2)cc(C)c1Cl
- EC50 [3]: 2.37 µM (active)

Structure (SMILES): Cc1ccc2c(c1)N(C(=O)CCC(=O)Nc1ccccc1Br)CC(C)O2 (configuration not stated)
- EC50 [3]: 1.68 µM (active)

Structure (SMILES): Cc1cc(Br)c(NC(=O)CN(C)CCOc2ccccc2)c(Br)c1
- EC50 [3]: 5.96 µM (active)

Structure (SMILES): C=CCOc1ccc(Br)cc1CNC(C)(C)CO
- EC50 [3]: 3.76 µM (active)

Structure (SMILES): CN1/C(=C\C(=O)COC(=O)C2COc3ccccc3O2)C(C)(C)c2ccccc21 (configuration not stated)
- IC50 (cells [6]): 48.2 µM (active)

Structure (SMILES): COc1ccc(-n2c(C)csc2=S)cc1
- EC50 (cells [1]): > 350 µM (not active)
- EC50 (cells [2]): > 350 µM (not active)

Structure (SMILES): Cc1cccc(NC(=O)C2CC(=O)N=C(Nc3nc4ccccc4s3)N2)c1 (configuration not stated)
- EC50 (cells [1]): > 350 µM (not active)
- EC50 (cells [2]): > 350 µM (not active)

Structure (SMILES): CCc1ccc(NC(=O)C(=O)NNC(=O)COc2cccc(OC)c2)cc1
- IC50 (cells [6]): 5.58 µM (active)

Structure (SMILES): Cc1[nH]n(S(=O)(=O)Cc2ccccc2)c(=O)c1N=Nc1ccccc1Cl
- IC50 (cells [6]): 8.42 µM (active)

Structure (SMILES): Cc1cc(SCC(=O)N/N=C/c2ccc(O)cc2O)c(C)cc1Br
- EC50 [14]: > 160 µM (inactive)
- EC50 [9]: 5.85 µM (active)
- EC50 [7]: 2.46 µM (active)
- EC50 (cells [1]): 13.4 µM (active)
- EC50 [10]: 9.19 µM (active)
- EC50 [11]: 5.74 µM (active)
- EC50 [15]: 3.06 µM (active)
- EC50 [16]: 0.687 µM (active)
- EC50 (cells [2]): > 350 µM (not active)
- EC50 [17]: > 60 µM (inconclusive)
- EC50 (Streptococcus): 2.57 µM (active)
- AC50 [8]: 4.49 µM (active)

Structure (SMILES): COc1cccc(C2C3=C(N=c4s/c(=C\c5cccc(O)c5)c(=O)n42)c2ccccc2CC3)c1OC (configuration not stated)
- EC50 [7]: 20.8 µM (active)
- EC50 (Streptokinase A): 6.31 µM (active)
- CC50 [5]: 32.5 µM (active)
- EC50 [18]: 13.9 µM (active)
- EC50 [19]: 15.3 µM (active)
- EC50 (Streptococcus): > 150 µM (not active)
- AC50 [8]: 4.06 µM (active)
